Source: patent US8399452B2, “Dibenzo[b,f][1,4]oxazepin-11-yl-N-hydroxybenzamides as HDAC inhibitors” (Methylgene Inc., priority 2006, dated 2013)

Each compound was assayed against histone deacetylase (HDAC Enzyme) (assay: Inhibition of Histone Deacetylase Enzymatic Activity (Boc-Lys(Ac)-AMC, Fluor-de-Lys developer)). Conditions: Table 9; read-out: HDAC Inhibition (IC50 μM) HDAC Enzyme.
Assay type: biochemical
Procedure: The following protocol is used to assay the compounds of the invention.
The mixture is pre-incubated for 5 minutes at room temperature. The reaction is started by bringing the temperature to 37° C. and adding 16 μl substrate. Total reaction volume is 50 μl.
In the Tables 8, 9 and 10, A≦[…]<B≦0.1 μM; 0.1 μM<C≦1 μM; and 1 μM<D≦10 μM.

Structure (SMILES)	IC50
O=C(NO)c1cnc(N2C[C@@H]3C[C@H]2CN3c2cccc3nonc23)nc1 [2-((1S,4S)-5-(benzo[c][1,2,5]oxadiazol-4-yl)-2,5-diazabicyclo[2.2.1]heptan-2-yl)-N-hydroxypyrimidine-5-carboxamide]	< 0.05 µM
O=C(NO)c1cnc(N2C[C@@H]3C[C@H]2CN3c2ccc3nonc3c2)nc1 [2-((1S,4S)-5-(benzo[c][1,2,5]oxadiazol-5-yl)-2,5-diazabicyclo[2.2.1]heptan-2-yl)-N-hydroxypyrimidine-5-carboxamide]	< 0.05 µM
O=C(NO)c1cnc(N2C[C@@H]3C[C@H]2CN3c2ccc3nsnc3c2)nc1 [2-((1S,4S)-5-(benzo[c][1,2,5]thiadiazol-5-yl)-2,5-diazabicyclo[2.2.1]heptan-2-yl)-N-hydroxypyrimidine-5-carboxamide]	< 0.05 µM
O=C(NO)c1cnc(N2C[C@@H]3C[C@H]2CN3c2ccc3c(c2)OCO3)nc1 [2-((1S,4S)-5-(benzo[d][1,3]dioxol-5-yl)-2,5-diazabicyclo[2.2.1]heptan-2-yl)-N-hydroxypyrimidine-5-carboxamide]	< 0.05 µM
O=C(NO)c1cnc(N2C[C@@H]3C[C@H]2CN3C(=O)c2ccccc2)nc1 [2-((1S,4S)-5-benzoyl-2,5-diazabicyclo[2.2.1]heptan-2-yl)-N-hydroxypyrimidine-5-carboxamide]	< 0.05 µM
O=C(NO)c1cnc(N2C[C@@H]3C[C@H]2CN3Cc2ccccc2)nc1 [2-((1S,4S)-5-benzyl-2,5-diazabicyclo[2.2.1]heptan-2-yl)-N-hydroxypyrimidine-5-carboxamide]	0.1 to 1 µM
O=C(NO)c1ccc(N2C[C@@H]3C[C@H]2CN3c2cccc(C(F)(F)F)c2)cc1F [2-fluoro-N-hydroxy-4-((1S,4S)-5-(3-(trifluoromethyl)phenyl)-2,5-diazabicyclo[2.2.1]heptan-2-yl)benzamide]	0.1 to 1 µM
N#Cc1cccc(N2C[C@@H]3C[C@H]2CN3c2ccc(C(=O)NO)cc2)c1 [4-((1S,4S)-5-(3-cyanophenyl)-2,5-diazabicyclo[2.2.1]heptan-2-yl)-N-hydroxybenzamide]	0.1 to 1 µM
O=C(NO)c1cnc(N2C[C@@H]3C[C@H]2CN3C(=O)OCc2ccccc2)nc1 [(1S,4S)-benzyl 5-(5-(hydroxycarbamoyl)pyrimidin-2-yl)-2,5-diazabicyclo[2.2.1]heptane-2-carboxylate]	< 0.05 µM
O=C(NO)c1cnc(N2C[C@@H]3C[C@H]2CN3C(=O)OC2CCCC2)nc1 [(1S,4S)-cyclopentyl 5-(5-(hydroxycarbamoyl)pyrimidin-2-yl)-2,5-diazabicyclo[2.2.1]heptane-2-carboxylate]	< 0.05 µM
O=C(NO)c1cnc(N2C[C@@H]3C[C@H]2CN3C(=O)OCC2CC2)nc1 [(1S,4S)-cyclopropylmethyl 5-(5-(hydroxycarbamoyl)pyrimidin-2-yl)-2,5-diazabicyclo[2.2.1]heptane-2-carboxylate]	< 0.05 µM
CC(C)COC(=O)N1C[C@@H]2C[C@H]1CN2c1ncc(C(=O)NO)cn1 [(1S,4S)-isobutyl 5-(5-(hydroxycarbamoyl)pyrimidin-2-yl)-2,5-diazabicyclo[2.2.1]heptane-2-carboxylate]	< 0.05 µM
CC(C)OC(=O)N1C[C@@H]2C[C@H]1CN2c1ncc(C(=O)NO)cn1 [(1S,4S)-isopropyl 5-(5-(hydroxycarbamoyl)pyrimidin-2-yl)-2,5-diazabicyclo[2.2.1]heptane-2-carboxylate]	< 0.05 µM
O=C(NO)c1cnc(N2C[C@@H]3C[C@H]2CN3C(=O)OCc2cccnc2)nc1 [(1S,4S)-pyridin-3-ylmethyl 5-(5-(hydroxycarbamoyl)pyrimidin-2-yl)-2,5-diazabicyclo[2.2.1]heptane-2-carboxylate]	< 0.05 µM
CC(C)(C)OC(=O)N1C[C@@H]2C[C@H]1CN2c1ncc(C(=O)NO)cn1 [(1S,4S)-tert-butyl 5-(5-(hydroxycarbamoyl)pyrimidin-2-yl)-2,5-diazabicyclo[2.2.1]heptane-2-carboxylate]	< 0.05 µM
O=C(NO)c1cnc(N2C[C@@H]3C[C@H]2CN3C(=O)OC2CCOCC2)nc1 [(1S,4S)-tetrahydro-2H-pyran-4-yl 5-(5-(hydroxycarbamoyl)pyrimidin-2-yl)-2,5-diazabicyclo[2.2.1]heptane-2-carboxylate]	< 0.05 µM

Continued, values first:

IC50	Structure (SMILES)
< 0.05 µM	O=C(NO)c1cnc(N2C[C@@H]3C[C@H]2CN3c2ccc(Cl)cc2)nc1 [2-((1S,4S)-5-(4-chlorophenyl)-2,5-diazabicyclo[2.2.1]heptan-2-yl)-N-hydroxypyrimidine-5-carboxamide]
0.05 to 0.1 µM	O=C(NO)c1cnc(N2C[C@@H]3C[C@H]2CN3c2ccc(F)cc2)nc1 [2-((1S,4S)-5-(4-fluorophenyl)-2,5-diazabicyclo[2.2.1]heptan-2-yl)-N-hydroxypyrimidine-5-carboxamide]
< 0.05 µM	O=C(NO)c1cnc(N2C[C@@H]3C[C@H]2CN3c2noc3ccccc23)nc1 [2-((1S,4S)-5-(benzo[d]isoxazol-3-yl)-2,5-diazabicyclo[2.2.1]heptan-2-yl)-N-hydroxypyrimidine-5-carboxamide]
< 0.05 µM	O=C(NO)c1cnc(N2C[C@@H]3C[C@H]2CN3C(c2ccccc2)c2ccccc2)nc1 [2-((1S,4S)-5-benzhydryl-2,5-diazabicyclo[2.2.1]heptan-2-yl)-N-hydroxypyrimidine-5-carboxamide]

Same assay, conditions: Table 10; read-out: HDAC Inhibition (IC50 μM) HDAC Enzyme

Structure (SMILES)	IC50
O=C(NO)c1cnc(NC(c2ccc(F)cc2)c2ccc(F)cc2)nc1 [2-(bis(4-fluorophenyl)methylamino)-N-hydroxypyrimidine-5-carboxamide]	< 0.05 µM
O=C(NO)c1cccc(CN(c2ccccc2)c2ccccc2)c1 [3-((diphenylamino)methyl)-N-hydroxybenzamide]	1 to 10 µM
O=C(CCCN1C(=O)c2cccnc2N(C2CC2)c2ccccc21)NO [4-(11-cyclopropyl-5-oxo-5H-benzo[b]pyrido[2,3-e][1,4]diazepin-6(11H)-yl)-N-hydroxybutanamide]	1 to 10 µM
O=C(NO)c1ccc(Cn2c3c(c4ccccc42)CCCCCC3)cc1 [4-((6,7,8,9,10,11-hexahydro-5H-cycloocta[b]indol-5-yl)methyl)-N-hydroxybenzamide]	0.1 to 1 µM
O=C(CCCCCN1c2ccccc2CCc2ccccc21)NO [6-(10,11-dihydro-5H-dibenzo[b,f]azepin-5-yl)-N-hydroxyhexanamide]	< 0.05 µM
O=C(CCCCCN1C(=O)c2cccnc2N(C2CC2)c2ccccc21)NO [6-(11-cyclopropyl-5-oxo-5H-benzo[b]pyrido[2,3-e][1,4]diazepin-6(11H)-yl)-N-hydroxyhexanamide]	0.1 to 1 µM
O=C(CCCCCCN1C(=O)c2cccnc2N(C2CC2)c2ccccc21)NO [7-(11-cyclopropyl-5-oxo-5H-benzo[b]pyrido[2,3-e][1,4]diazepin-6(11H)-yl)-N-hydroxyheptanamide]	0.05 to 0.1 µM
O=C(CCCCCCN1Cc2ccccc2Oc2ccccc21)NO [7-(dibenzo[b,f][1,4]oxazepin-10(11H)-yl)-N-hydroxyheptanamide]	0.1 to 1 µM
O=C(CCCCCCCN1C(=O)c2cccnc2N(C2CC2)c2ccccc21)NO [8-(11-cyclopropyl-5-oxo-5H-benzo[b]pyrido[2,3-e][1,4]diazepin-6(11H)-yl)-N-hydroxyoctanamide]	0.1 to 1 µM
O=C(CCCCCCC(=O)N1Cc2ccccc2Oc2ccccc21)NO [8-(dibenzo[b,f][1,4]oxazepin-10(11H)-yl)-N-hydroxy-8-oxooctanamide]	0.1 to 1 µM

Results, then the compound that gave them:

IC50	Structure (SMILES)
< 0.05 µM	O=C(NO)c1cnc(NC(c2ccccc2)c2ccccc2)nc1 [2-(benzhydrylamino)-N-hydroxypyrimidine-5-carboxamide]
0.1 to 1 µM	O=C(NO)c1cnc(OC(c2ccc(F)cc2)c2ccc(F)cc2)nc1 [2-(bis(4-fluorophenyl)methoxy)-N-hydroxypyrimidine-5-carboxamide]
1 to 10 µM	O=C(NO)c1cnc(ON=C(c2ccccc2)c2ccccc2)nc1 [2-(diphenylmethyleneaminooxy)-N-hydroxypyrimidine-5-carboxamide]
0.1 to 1 µM	O=C(NO)c1cccc(CN2c3ccccc3Sc3ccccc32)c1 [3-((10H-phenothiazin-10-yl)methyl)-N-hydroxybenzamide]
1 to 10 µM	O=C(NO)c1cccc(CN2c3ccccc3Oc3ccccc32)c1 [3-((10H-phenoxazin-10-yl)methyl)-N-hydroxybenzamide]
0.1 to 1 µM	O=C(NO)c1ccc(CNC2c3ccccc3COc3ccccc32)cc1 (stereo not shown) [4-((6,11-dihydrodibenzo[b,e]oxepin-11-ylamino)methyl)-N-hydroxybenzamide]
< 0.05 µM	O=C(NO)c1ccc(CN2c3ccccc3CCc3ccccc32)cc1 [4-((10,11-dihydro-5H-dibenzo[b,f]azepin-5-yl)methyl)-N-hydroxybenzamide]
0.1 to 1 µM	O=C(NO)c1ccc(CN2C(=O)c3cccnc3N(C3CC3)c3ccccc32)cc1 [4-((11-cyclopropyl-5-oxo-5H-benzo[b]pyrido[2,3-e][1,4]diazepin-6(11H)-yl)methyl)-N-hydroxybenzamide]
< 0.05 µM	O=C(NO)c1ccc(CNC(c2ccccc2)c2ccccc2)cc1 [4-((benzhydrylamino)methyl)-N-hydroxybenzamide]
0.1 to 1 µM	O=C(NO)c1ccc(CN(c2ccccc2)c2ccccc2)cc1 [4-((diphenylamino)methyl)-N-hydroxybenzamide]
< 0.05 µM	O=C(NO)c1ccc(CN2Cc3ccccc3Oc3ccccc32)cc1 [4-(dibenzo[b,f][1,4]oxazepin-10(11H)-ylmethyl)-N-hydroxybenzamide]

Same assay, conditions: read-out: HDAC Inhibtion (IC50 μM) HDAC Enzyme

IC50	Structure (SMILES)
< 0.05 µM	O=C(NO)c1ccc(C2Nc3ccccc3Oc3ccccc32)cc1 (stereo not shown) [4-(10,11-dihydrodibenzo[b,f][1,4]oxazepin-11-yl)-N-hydroxybenzamide]
< 0.05 µM	O=C(NO)c1cnc(N2CCN(C3=Nc4ccccc4Oc4ccc(Cl)cc43)CC2)nc1 [(E)-2-(4-(2-chlorodibenzo[b,f][1,4]oxazepin-11-yl)piperazin-1-yl)-N-hydroxypyrimidine-5-carboxamide]
